From US4016280A, “4,4-Diarylpiperidine compositions and use” (Byk Gulden Lomberg Chemische Fabrik GmbH, priority 1969, dated 1977)
Like-named read-outs stand apart in the source and are kept apart here.

Columns and labels:
[1] = Acute toxicity in the albino mouse; settings: in vivo
Protocol: (§1) As stated above, the compounds of formula I have advantageous central nervous system stimulating properties. Side-effects, as they are encountered on administration of amphetamine-type stimulants, are produced to a much lesser extent by the 4,4-diphenylpiperidine compounds, if at all. […] The tests were carried out according to known and accepted pharmacological standard test methods.
(§2) a Acute toxicity 150 mg./kg. 100 mg./kg.

albino mouse [2] = experiment: Locomotory activity (restlessness in movements); format: in vivo; settings: albino mouse 5 mg/kg. perorally
Protocol: as §1

albino mouse [3] = experiment: Saliva secretion; format: in vivo
Protocol: as §1
No secretion Pronounced

[4] = Increase in blood pressure; format: in vivo; settings: rats and dogs
Protocol: as §1
pressure (rats and increase

[5] = Potentiating effect on noradrenaline; settings: in vivo
Protocol: as §1

Exophthalmus = settings: in vivo
Protocol: as §1
f Exophthalmus Absent Present

Tachyphylaxis = settings: in vivo
Protocol: as §1
g Tachyphylaxis None Pronounced

albino mouse [6] = experiment: General behaviour of the albino mouse with different doses; format: in vivo; settings: for Locomotory activity / Restlessness Stereotype / Salivation / Vigilance: different doses per os, Examples 28, 29: 50 to 300 mg/kg; for Sedation of animals (in words): mouse, in vivo
Protocol: Acute toxi- General behaviour of the albino
city in the mouse with different doses*
(§3) *drugs administered per os
(§4) **administered in doses from 50 to 300 mg/kg

albino mouse [7] = experiment: Antagonism in the albino mouse of reserpine (preventive and curative ptosis/sedation); format: in vivo; settings: reserpine 2mg/kg sc.; for ED50: Mus musculus, po
Protocol: (§5) Antagonism in the albino mouse
(§6) Com- Preventive Curative catalepsy
(§7) of tion dation p.o.) i.p.)
as §3, §4

albino mouse [8] = experiment: Antagonism in the albino mouse of perphenazine catalepsy; format: in vivo; settings: for ED50: Mus musculus, po, perphenazine 10 mg/kg p.o., drug per os, Examples 28, 29: 50 to 300 mg/kg; for Anticataleptic action (in words): mouse, in vivo
Protocol: as §5, §6, §7, §3, §4

albino mouse [9] = experiment: Antagonism in the albino mouse of tremorine tremor; format: in vivo; settings: tremorine 15 mg/kg i.p., drug per os, Examples 28, 29: 50 to 300 mg/kg; for ED50: Mus musculus, po
Protocol: as §5, §7, §3, §4

[10] = Marshall, Brit. J. Pharmacol. 10, 270 (1955), technique of Schild, cited from earlier work
[11] = Randall and Lehmann, J. Pharmacol. Exp. Therap. 93, 314 (1948), cited from earlier work
albino mouse [12] = experiment: Acute toxicity in the albino mouse; settings: mouse, in vivo
Protocol: as §1, §2

[13] = Potentiation of the effect of hexobarbital; settings: in vivo
Text: (§8) These compounds are useful as neuroleptics.

Neuroleptic effects = settings: in vivo
Text: as §8

[14] = mouse, iv, Table 2, i.v., read-out: Acute toxicity in the albino mouse LD50 i.v.
[15] = mouse, po, Table 2, p.o., read-out: Acute toxicity in the albino mouse LD50 p.o.
[16] = drug per os, Examples 28, 29: 50 to 300 mg/kg, read-out: Reserpine antagonism, Curative Sedation ED50
[17] = drug per os, Examples 28, 29: 50 to 300 mg/kg, read-out: Reserpine antagonism, Curative ptosis ED50
[18] = drug per os, read-out: Reserpine antagonism, Preventive Sedation ED50
[19] = drug per os, read-out: Reserpine antagonism, Preventive ptosis ED50
[20] = listed as 1 methyl-4,4-diphenylpiperidine
[21] = doses from 50 to 300 mg/kg per os
[22] = 18 h, doses from 50 to 300 mg/kg per os
[23] = 18 h, doses from 50 to 300 mg/kg per os, read-out: Reserpine antagonism, Preventive Sedation ED50, 18 h
[24] = drug per os, Examples 28, 29: 50 to 300 mg/kg

SMILES | Locomotory activity (restlessness in movements), increase by (albino mouse [2]) | Saliva secretion (albino mouse [3]) | Increase in blood pressure [4] | Potentiating effect on noradrenaline [5] | Exophthalmus (Exophthalmus) | Tachyphylaxis (Tachyphylaxis) | LD50 [1, 14] | LD50 [1, 15] | Vigilance of the animal (in words) (albino mouse [6]; albino mouse) | Locomotory activity (albino mouse [6]; albino mouse) | Restlessness Stereotype (albino mouse [6]; albino mouse) | Salivation (albino mouse [6]; albino mouse) | Vigilance (albino mouse [6]; albino mouse) | ED50 (albino mouse [7]; [16]) | ED50 (albino mouse [7]; [17]) | ED50 (albino mouse [7]; [18]) | ED50 (albino mouse [7]; [19]) | ED50 (albino mouse [8]) | ED50 (albino mouse [9]) | Acute toxicity (in words) (albino mouse [12]) | other results
CC(N)Cc1ccccc1 (stereo not drawn) [Amphetamine, reference compound] | 100% | Pronounced | Pronounced | Present | Present | Pronounced |  |  |  |  |  |  |  |  |  |  |  |  |  |  | LD50 ([1]; po, Table 1, albino mouse perorally, read-out: Acute toxicity): 100 mg/kg
CN1CCC(c2ccccc2)(c2ccccc2)CC1 [Example 1, 1-Methyl-4,4-diphenylpiperidine] |  |  |  |  |  |  | 45 mg/kg | 140 mg/kg | strong increase | (+) | .phi. (no effect) | .phi. (no effect) | ++ | 10 mg/kg | > 50 mg/kg | 3 mg/kg | 4 mg/kg | 3 mg/kg | 1 mg/kg |  | Locomotory activity (in words) (albino mouse [6]; albino mouse): only slightly increased; Restlessness, stereotypia or salivation (in words) (albino mouse [6]; albino mouse): without causing restlessness, sterotypia or salivation; Antihistaminic activity ([10]; listed as 1-Methyl-4,4-diphenylpiperidine): devoid of any therapeutically utilizable antihistaminic activity; Antihistaminic activity [10, 20]: devoid of any therapeutically-utilizable antihistaminic activity; Analgesic activity ([11]; listed as 1-methyl-4,4-diphenylpiperidine): devoid of analgesic activity; Analgesic activity [11, 20]: devoid of analgesic action
CC(C)N1CCC(c2ccccc2)(c2ccccc2)CC1 [Example 4, 1-Isopropyl-4,4-diphenylpiperidine] | 20% | No secretion | Slight increase | Present | Absent | None | 20 mg/kg | 150 mg/kg |  | (+) | .phi. (no effect) | .phi. (no effect) | ++ | 13 mg/kg | > 50 mg/kg | 3 mg/kg | 16 mg/kg | 7 mg/kg | 1.5 mg/kg |  | 
O=C(CCCN1CCC(c2ccccc2)(c2ccccc2)CC1)c1ccc(F)cc1 [Example 28, 1-[3-(p-Fluorobenzoyl)propyl]-4,4-diphenylpiperidine] |  |  |  |  |  |  |  | 3800 mg/kg | somewhat reduce vigilance | - (decrease) | .phi. (no effect) | .phi. (no effect) | - (decrease) |  |  |  |  | 50 mg/kg |  | very low acute toxicity | Sedation of animals (in words) (albino mouse [6]): induce sedation; Reserpine antagonism, Preventive Sedation ED50, 3 h (albino mouse [7]; [21]): .phi. (no effect); Reserpine antagonism, Preventive ptosis ED50, 3 h (albino mouse [7]; [21]): .phi. (no effect); Reserpine antagonism, Preventive ptosis ED50, 18 h (albino mouse [7]; [22]): .phi. (no effect); ED50 (albino mouse [7]; [23]): 300 mg/kg; Reserpine antagonism, Curative Sedation ED50 (albino mouse [7]; [24]): .phi. (no effect); Reserpine antagonism, Curative ptosis ED50 (albino mouse [7]; [24]): .phi. (no effect); Anticataleptic action (in words) (albino mouse [8]): exhibit anticataleptic action; Tremorine tremor antagonism ED50 (albino mouse [9]): .phi. (no effect); Effect on hexobarbital (in words) [13]: potentiate the effect of hexobarbital; Neuroleptic effects (in words) (Neuroleptic effects): exhibit neuroleptic effects
O=C(CCCN1CCC(c2ccccc2)(c2ccccc2)CC1)c1ccccc1 [Example 29, 1-(3-Benzoylpropyl)-4,4-diphenylpiperidine] |  |  |  |  |  |  |  |  | somewhat reduce vigilance | - (decrease) | .phi. (no effect) | .phi. (no effect) | - (decrease) |  |  |  |  | 50 mg/kg |  | very low acute toxicity | Sedation of animals (in words) (albino mouse [6]): induce sedation; Reserpine antagonism, Preventive Sedation ED50, 3 h (albino mouse [7]; [21]): .phi. (no effect); Reserpine antagonism, Preventive ptosis ED50, 3 h (albino mouse [7]; [21]): .phi. (no effect); Reserpine antagonism, Preventive ptosis ED50, 18 h (albino mouse [7]; [22]): .phi. (no effect); ED50 (albino mouse [7]; [23]): 100 mg/kg; Reserpine antagonism, Curative Sedation ED50 (albino mouse [7]; [24]): .phi. (no effect); Reserpine antagonism, Curative ptosis ED50 (albino mouse [7]; [24]): .phi. (no effect); Anticataleptic action (in words) (albino mouse [8]): exhibit anticataleptic action; Tremorine tremor antagonism ED50 (albino mouse [9]): .phi. (no effect); Effect on hexobarbital (in words) [13]: potentiate the effect of hexobarbital; Neuroleptic effects (in words) (Neuroleptic effects): exhibit neuroleptic effects
